Results taken from ChEMBL document CHEMBL1146168, “Binding of f-PIP, a pyrrole- and imidazole-containing triamide, to the inverted CCAAT box-2 of the topoisomerase IIalpha promoter and modulation of gene expression in cells” (Bioorg Med Chem Lett, 2006).
Active and inactive are the calls of the source. No cut-off for these calls is given here.

Key:
Homo sapiens [1] = organism: Homo sapiens; assay: Binding affinity to DNA sequence ICB1 assessed as protection of ICB1 from DNAase I cleavage at 100 uM
Homo sapiens [2] = organism: Homo sapiens; assay: Binding affinity to DNA sequence ICB2 by SPR
NIH3T3 [3] = assay: Inhibition of NF-Y binding to DNA sequence ICB2 in NIH3T3 cell extracts at 50 uM by EMSA; type: cell-free; conditions: Homo sapiens
NIH3T3 [4] = assay: Inhibition of NF-Y binding to DNA sequence ICB1 in NIH3T3 cell extracts at 50uM by EMSA; type: cell-free; conditions: Homo sapiens
NIH3T3 [5] = assay: Increased topoisomerase 2 alpha protein expression in NIH3T3 cells at 10 uM after 4 hrs; type: functional, cell-based; conditions: Mus musculus
Homo sapiens [6] = organism: Homo sapiens; assay: Binding affinity to DNA sequence ICB4 assessed as protection of ICB4 from DNAase I cleavage at 100 uM
NIH3T3 [7] = assay: Inhibition of NF-Y binding to DNA sequence ICB2 in NIH3T3 cell extracts at 1 to 5 uM by EMSA; type: cell-free; conditions: Homo sapiens
NIH3T3 [8] = assay: Induction of topoisomerase 2 alpha protein expression in NIH3T3 cells after 24 hrs; type: functional, cell-based; conditions: Mus musculus

SMILES	Activity (Homo sapiens [1])	Activity (Homo sapiens [2]) [M⁻¹]	Activity (NIH3T3 [3])	Activity (NIH3T3 [4])	Activity (NIH3T3 [5])	Activity (Homo sapiens [6])	Activity (NIH3T3 [7])	Activity (NIH3T3 [8])
CN(C)CCNC(=O)c1cc(NC(=O)c2nc(NC(=O)c3cc(NC=O)cn3C)cn2C)cn1C	inactive	200000	Active	inactive	Active	inactive	–	–
CN(C)CCNC(=O)c1cc(NC(=O)c2cc(NC(=O)c3cc(NC(=O)CCCNC(=O)c4nc(NC(=O)c5nc(NC(=O)c6cccn6C)cn5C)cn4C)cn3C)cn2C)cn1C	–	–	–	–	–	–	Active	Active
